In ChEMBL document CHEMBL5726364, “Uracil derivatives as AXL and c-MET kinase inhibitors” (2017):

Target: T1, Tyrosine-protein kinase receptor UFO (Homo sapiens, UniProt P30530)
T1 sequence (P30530 whole entry): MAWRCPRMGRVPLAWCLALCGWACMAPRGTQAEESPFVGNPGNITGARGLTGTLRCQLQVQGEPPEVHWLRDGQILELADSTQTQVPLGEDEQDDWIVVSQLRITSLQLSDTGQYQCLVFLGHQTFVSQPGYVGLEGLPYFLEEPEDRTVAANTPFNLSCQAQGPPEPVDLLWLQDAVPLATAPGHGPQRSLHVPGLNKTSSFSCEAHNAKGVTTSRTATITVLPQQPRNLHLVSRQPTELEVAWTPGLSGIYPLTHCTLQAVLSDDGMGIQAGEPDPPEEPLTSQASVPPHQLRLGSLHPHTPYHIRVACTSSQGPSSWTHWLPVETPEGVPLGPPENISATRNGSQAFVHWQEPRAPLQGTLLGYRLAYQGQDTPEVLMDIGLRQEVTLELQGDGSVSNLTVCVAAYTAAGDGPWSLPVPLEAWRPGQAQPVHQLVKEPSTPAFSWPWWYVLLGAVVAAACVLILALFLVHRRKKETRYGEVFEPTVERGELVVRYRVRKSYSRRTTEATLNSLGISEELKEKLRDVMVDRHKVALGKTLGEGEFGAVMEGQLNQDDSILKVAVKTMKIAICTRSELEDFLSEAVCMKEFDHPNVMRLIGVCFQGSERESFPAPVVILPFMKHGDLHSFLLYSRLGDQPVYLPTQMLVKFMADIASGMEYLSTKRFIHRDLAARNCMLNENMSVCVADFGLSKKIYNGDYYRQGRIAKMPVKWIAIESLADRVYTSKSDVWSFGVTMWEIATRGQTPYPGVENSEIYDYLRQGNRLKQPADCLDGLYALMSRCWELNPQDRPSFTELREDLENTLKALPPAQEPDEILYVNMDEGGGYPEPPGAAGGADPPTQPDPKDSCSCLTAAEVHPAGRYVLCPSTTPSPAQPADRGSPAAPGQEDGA
Assay: Kinase Assay: The ability of compounds to inhibit the kinase activity of recombinant human baculovirus-expressed AXL was measured by homogeneous TRF (HTRF) using Cisbio's KinEASE assay system in white 384-well Optiplates. Assay buffer contained 1 mM DTT, 2 mM MnCl2, 2% DMSO, 50 nM supplement enzymatic buffer, and 1× enzymatic buffer. A 2× concentration of tyrosine kinase (TK) substrate-biotin/ATP mixture made in assay buffer was added to plates at 10 μL/well using the Multidrop Combi (Thermo Fisher Scientific, Waltham, Mass.). […] Compounds (100 nL), diluted in 100% DMSO on the Biomek FX, (Beckman Coulter, Inc., Brea, Calif.), were transferred to the assay plates using the Biomek FX pintool (2.5% final DMSO in assay). A 2× concentration (final=12 ng/mL) of GST-AXL (diluted in assay buffer) was added to plates at 10 uL/well using the Multidrop Combi. Plates were sealed, briefly shaken and incubated at 25° C. for 30 minutes. […] Plates were sealed, briefly shaken and incubated at 25° C. for 1 hour.

SMILES	IC50
C=CCn1cc(C(=O)Nc2ccc(Oc3ccnc4cc(OC)c(OC)cc34)c(F)c2)c(=O)n(CC=C)c1=O	< 10 nM
CCn1cc(C(=O)Nc2ccc(Oc3ccnc4cc(OC)c(OC)cc34)c(Cl)c2)c(=O)n(-c2ccc(F)cc2)c1=O	< 10 nM
CCn1nc(C(=O)Nc2ccc(Oc3ccnc4cc(OC)c(OC)cc34)cn2)c(=O)n(-c2ccc(F)cc2)c1=O	< 10 nM
